In ChEMBL document CHEMBL3865812, “Selective killing of cancer cells with triterpenoic acid amides - The substantial role of an aromatic moiety alignment” (Eur J Med Chem, 2016):
The source made the active and inactive calls. The calls are words filed in the database; no cut-off is given here.

Assays:
[1] = Cytotoxicity against human A549 cells measured after 96 hrs by SRB assay; assay type: functional, cell-based; details: A549, 96 h
[2] = Cytotoxicity against human HT-29 cells measured after 96 hrs by SRB assay; assay type: functional, cell-based; details: HT-29, 96 h
[3] = Cytotoxicity against mouse NIH/3T3 cells measured after 96 hrs by SRB assay; assay type: toxicity, NIH3T3
[4] = Cytotoxicity against human 8505C cells measured after 96 hrs by SRB assay; assay type: functional, cell-based
[5] = Cytotoxicity against human A2780 cells measured after 96 hrs by SRB assay; assay type: functional, cell-based; details: A2780, 96 h
[6] = Cytotoxicity against human 518A2 cells measured after 96 hrs by SRB assay; assay type: functional, cell-based; details: 518A2, 96 h
[7] = Cytotoxicity against human MCF7 cells measured after 96 hrs by SRB assay; assay type: functional, cell-based; details: MCF7, 96 h
[8] = Cell cycle arrest in human A2780 cells assessed as decrease in G1 peak at 6 uM measured after 24 hrs by propidium iodide staining based FACS analysis; assay type: functional
A2780 [9] = assay: Induction of apoptosis in human A2780 cells assessed as increase in apoptotic cells at 6 uM measured after 2 days by Annexin V/FITC/propidium iodide staining-based FACS analysis; assay type: functional, cell-based
[10] = Cell cycle arrest in human A2780 cells assessed as loss of G2 peak at 6 uM measured after 24 hrs by propidium iodide staining based FACS analysis; assay type: functional
[11] = Cell cycle arrest in human A2780 cells assessed as accumulation at S-phase at 6 uM measured after 24 hrs by propidium iodide staining based FACS analysis; assay type: functional
[12] = Cell cycle arrest in human A2780 cells assessed as decrease in accumulation of cells at S-phase at 6 uM measured after 48 hrs by propidium iodide staining based FACS analysis; assay type: functional
[13] = Solubility of compound in water; assay type: physicochemical; details: buffer
[14] = Cell cycle arrest in human A2780 cells assessed as sub-G1 peak appearance at 6 uM measured after 48 hrs by propidium iodide staining based FACS analysis; assay type: functional
A2780 [15] = assay: Induction of apoptosis in human A2780 cells assessed as secondary necrotic cells at 6 uM measured after 2 days by Annexin V/FITC/propidium iodide staining-based FACS analysis; assay type: functional, cell-based

| solubility [13] | SMILES | EC50 [1] [µM] | EC50 [2] [µM] | EC50 at 96 h [3] [µM] | EC50 [4] [µM] | EC50 [5] [µM] | EC50 [6] [µM] | EC50 [7] [µM] | Activity [8] | Activity (A2780 [9]) | Activity [10] | Activity [11] | Activity [12] | Activity [14] | Activity (A2780 [15]) |
| --- | --- | --- | --- | --- | --- | --- | --- | --- | --- | --- | --- | --- | --- | --- | --- |
|  | CC(=O)O[C@H]1C[C@]2(C)[C@H]3CC=C4[C@@H]5CC(C)(C)CC[C@]5(C(=O)Nc5ccncc5)CC[C@@]4(C)[C@]3(C)CC[C@H]2C(C)(C)[C@H]1OC(C)=O | 4 | 2.7 | 1.8 | 4.1 | 1.6 | 4.2 | 3.1 |  |  |  |  |  |  |  |
| Insoluble | CC(=O)O[C@H]1C[C@]2(C)[C@H]3CC=C4[C@@H]5CC(C)(C)CC[C@]5(C(=O)Nc5ccnc6ccccc56)CC[C@@]4(C)[C@]3(C)CC[C@H]2C(C)(C)[C@H]1OC(C)=O | 4.2 | 4.1 | 2.9 | 3.4 | 2 | 2.4 | 4.3 | Active | Active | Active | Active | Active | Active | Active |
|  | CC(=O)O[C@H]1C[C@]2(C)[C@H]3CC=C4[C@@H]5[C@@H](C)[C@H](C)CC[C@]5(C(=O)Nc5cccc6ncccc56)CC[C@@]4(C)[C@]3(C)CC[C@H]2C(C)(C)[C@H]1OC(C)=O | 3.7 | 3.6 | > 60 | 3.2 | 2.7 | 2 | 5.5 |  |  |  |  |  |  |  |
|  | CC(=O)O[C@H]1C[C@]2(C)[C@H]3CC=C4[C@@H]5CC(C)(C)CC[C@]5(C(=O)O)CC[C@@]4(C)[C@]3(C)CC[C@H]2C(C)(C)[C@H]1OC(C)=O |  | 23.1 | > 30 |  |  | 13.8 | 16.1 |  |  |  |  |  |  |  |
| Insoluble | CC(=O)O[C@H]1C[C@]2(C)[C@H]3CC=C4[C@@H]5[C@@H](C)[C@H](C)CC[C@]5(C(=O)Nc5ccnc6ccccc56)CC[C@@]4(C)[C@]3(C)CC[C@H]2C(C)(C)[C@H]1OC(C)=O | 8.2 | 5.5 | 5.2 | 6.6 | 3.5 | 6.4 | 4 |  |  |  |  |  |  |  |
| Insoluble | CC(=O)O[C@H]1C[C@]2(C)[C@H]3CC=C4[C@@H]5CC(C)(C)CC[C@]5(C(=O)Nc5cnc6ccccc6c5)CC[C@@]4(C)[C@]3(C)CC[C@H]2C(C)(C)[C@H]1OC(C)=O | 7.4 | 6.3 | 0.9 | 5 | 2.2 | 2.9 | 9.3 | Active | Active | Active | Active | Active | Active | Active |
|  | CC(=O)O[C@H]1C[C@]2(C)[C@H]3CC=C4[C@@H]5[C@@H](C)[C@H](C)CC[C@]5(C(=O)O)CC[C@@]4(C)[C@]3(C)CC[C@H]2C(C)(C)[C@H]1OC(C)=O | 15.6 | 16.2 | 12.7 | 15.6 | 17.9 | 17.9 | 10.4 |  |  |  |  |  |  |  |
|  | CC(=O)O[C@H]1C[C@]2(C)[C@H]3CC=C4[C@@H]5CC(C)(C)CC[C@]5(C(=O)Nc5cccc6ncccc56)CC[C@@]4(C)[C@]3(C)CC[C@H]2C(C)(C)[C@H]1OC(C)=O | 3 | 2.4 | 8.6 | 2.3 | 0.7 | 1.2 | 2.5 | Active | Active | Active | Active | Active | Active | Active |
| Insoluble | CC(=O)O[C@H]1C[C@]2(C)[C@H]3CC=C4[C@@H]5[C@@H](C)[C@H](C)CC[C@]5(C(=O)Nc5cnc6ccccc6c5)CC[C@@]4(C)[C@]3(C)CC[C@H]2C(C)(C)[C@H]1OC(C)=O | 3.4 | 6.5 | 2.2 | 3.1 | 2.8 | 2.5 | 3.2 |  |  |  |  |  |  |  |
|  | CC(=O)O[C@H]1C[C@]2(C)[C@H]3CC=C4[C@@H]5[C@@H](C)[C@H](C)CC[C@]5(C(=O)Nc5ccncc5)CC[C@@]4(C)[C@]3(C)CC[C@H]2C(C)(C)[C@H]1OC(C)=O | 10.1 | 9.4 | 5.7 | 8.5 | 8.3 | 8.3 | 9 |  |  |  |  |  |  |  |
| Insoluble | CC(=O)O[C@H]1C[C@]2(C)[C@H]3CC=C4[C@@H]5CC(C)(C)CC[C@]5(C(=O)Nc5cccc6cccnc56)CC[C@@]4(C)[C@]3(C)CC[C@H]2C(C)(C)[C@H]1OC(C)=O | > 30 | > 30 | > 30 | 16.1 | 5.1 | 6.2 | 24.6 |  |  |  |  |  |  |  |
|  | CC(=O)O[C@H]1C[C@]2(C)[C@H]3CC=C4[C@@H]5[C@@H](C)[C@H](C)CC[C@]5(C(=O)Nc5cccnc5)CC[C@@]4(C)[C@]3(C)CC[C@H]2C(C)(C)[C@H]1OC(C)=O | 3.5 | 3.2 | 4.2 | 2.7 | 2 | 2 | 3.5 |  |  |  |  |  |  |  |
|  | CC1(C)CC[C@]2(C(=O)O)CC[C@]3(C)C(=CC[C@@H]4[C@@]5(C)C[C@H](O)[C@H](O)C(C)(C)[C@@H]5CC[C@]43C)[C@@H]2C1 [AUGUSTIC ACID] |  | > 30 | > 30 |  |  | 25.7 | 25.1 |  |  |  |  |  |  |  |
| Insoluble | CC(=O)O[C@H]1C[C@]2(C)[C@H]3CC=C4[C@@H]5[C@@H](C)[C@H](C)CC[C@]5(C(=O)Nc5ccc6ncccc6c5)CC[C@@]4(C)[C@]3(C)CC[C@H]2C(C)(C)[C@H]1OC(C)=O | 5.3 | 9.2 | 0.9 | 4.3 | 4.2 | 4.2 | 6.5 |  |  |  |  |  |  |  |
|  | CC(=O)O[C@H]1C[C@]2(C)[C@H]3CC=C4[C@@H]5CC(C)(C)CC[C@]5(C(=O)Nc5cccnc5)CC[C@@]4(C)[C@]3(C)CC[C@H]2C(C)(C)[C@H]1OC(C)=O | 2.8 | 2.2 | 2.4 | 2.3 | 0.9 | 1.7 | 2 |  |  |  |  |  |  |  |
|  | CC(=O)O[C@H]1CC[C@]2(C)[C@H]3CC=C4[C@@H]5[C@@H](C)[C@H](C)CC[C@]5(C(=O)Nc5cccc6ncccc56)CC[C@@]4(C)[C@]3(C)CC[C@H]2C1(C)C | 5.1 | 5.1 | 3.5 | 3.5 | 4.4 | 3.5 | 3.9 |  |  |  |  |  |  |  |
| Insoluble | CC(=O)O[C@H]1C[C@]2(C)[C@H]3CC=C4[C@@H]5[C@@H](C)[C@H](C)CC[C@]5(C(=O)Nc5ccc6cccnc6c5)CC[C@@]4(C)[C@]3(C)CC[C@H]2C(C)(C)[C@H]1OC(C)=O | 3.1 | 2 | 1.8 | 2.5 | 1.8 | 2.4 | 1.6 |  |  |  |  |  |  |  |
| Insoluble | CC(=O)O[C@H]1C[C@]2(C)[C@H]3CC=C4[C@@H]5[C@@H](C)[C@H](C)CC[C@]5(C(=O)Nc5cccc6cccnc56)CC[C@@]4(C)[C@]3(C)CC[C@H]2C(C)(C)[C@H]1OC(C)=O | > 30 | > 30 | > 30 | > 30 | 6.7 | 13.3 | > 30 |  |  |  |  |  |  |  |
|  | C[C@H]1[C@H](C)CC[C@]2(C(=O)O)CC[C@]3(C)C(=CC[C@@H]4[C@@]5(C)C[C@H](O)[C@H](O)C(C)(C)[C@@H]5CC[C@]43C)[C@H]12 | > 30 | > 30 | > 30 | > 30 | 24.9 | > 30 | 29.1 |  |  |  |  |  |  |  |
| Insoluble | CC(=O)O[C@H]1C[C@]2(C)[C@H]3CC=C4[C@@H]5CC(C)(C)CC[C@]5(C(=O)Nc5ccc6cccnc6c5)CC[C@@]4(C)[C@]3(C)CC[C@H]2C(C)(C)[C@H]1OC(C)=O | 2.6 | 1.3 | 0.7 | 1.6 | 1 | 1.6 | 1.4 |  |  |  |  |  |  |  |
| Insoluble | CC(=O)O[C@H]1C[C@]2(C)[C@H]3CC=C4[C@@H]5CC(C)(C)CC[C@]5(C(=O)Nc5ccc6ncccc6c5)CC[C@@]4(C)[C@]3(C)CC[C@H]2C(C)(C)[C@H]1OC(C)=O | 4.9 | 4.4 | 0.6 | 3.8 | 2 | 2.9 | 5.8 | Active | Active | Active | Active | Active | Active | Active |
